Test systems include PC-3 prostate; CAKI-1 renal; HS 578T breast; HT29 colon; DU-145 prostate; TK-10 renal; HCT-116 colon; A498 renal; M14 melanoma; A549 NSCLC.
Holding throughout (experiment): growth of human tumour cells (NCI), 48 h

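Following 48 hours of exposure in 96-well plates, responses at five concentrations were used to interpolate endpoints linearly. Here, GI50 denotes the concentration required for 50% inhibition of growth. At the TGI there is no net growth.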

`COc1cccc(-c2nn(-c3ccccc3)cc2-c2ccnc(NCCCNS(=O)(=O)c3ccc(C(F)(F)F)cc3)c2)c1`: the GI50 in the test with PC-3 prostate was 3.36 µM; in the test on CAKI-1 renal, 5.76 µM; in the test with HS 578T breast it was 5.41 µM; in the test with HT29 colon it was 3.21 µM; in the test on DU-145 prostate, 22.7 µM; in the test on TK-10 renal it was 9.25 µM. Besides, the GI50 is 4.18 µM in the test on HCT-116 colon, 3.8 µM in the test on A498 renal, 4.46 µM in the test with M14 melanoma and 6.65 µM in the test with A549 NSCLC. The TGI in the test on PC-3 prostate, in the test with CAKI-1 renal, in the test on HS 578T breast, in the test on DU-145 prostate, in the test on TK-10 renal and in the test on HCT-116 colon was > 100 µM in each case. In addition, the TGI with A498 renal, in the test with M14 melanoma and in the test with A549 NSCLC was > 100 µM each time.
For `CCS(=O)(=O)N1CCN(c2ccc(Nc3ncc(C(N)=O)c(NC4CC4)n3)cc2)CC1`, the GI50 in the test with PC-3 prostate is 16.1 µM; with CAKI-1 renal, 5.46 µM; in the test on HS 578T breast, 10.9 µM; with HT29 colon, 6.14 µM; with DU-145 prostate, 8.63 µM; in the test with TK-10 renal, 9.19 µM. Moreover, the GI50 in the test with HCT-116 colon was 5.84 µM; in the test with A498 renal, 4.32 µM; in the test on M14 melanoma, 3.23 µM; in the test on A549 NSCLC it was 19 µM. Also, the TGI is > 100 µM in the test with PC-3 prostate; 28.5 µM in the test on CAKI-1 renal; 57.3 µM in the test with HS 578T breast; 21.6 µM with HT29 colon; > 100 µM with DU-145 prostate; 32.2 µM in the test with TK-10 renal. Besides, the TGI with HCT-116 colon was > 100 µM; in the test with A498 renal, 8.97 µM; in the test on M14 melanoma, 69 µM; in the test on A549 NSCLC it was > 100 µM.
Take `COc1ccc(NC(=O)c2cccc(C3CCc4c(cc(OC)c(OC)c4OC)O3)c2)cc1` (centres undefined): the GI50 with PC-3 prostate is 1.57 µM; with CAKI-1 renal it was 3.49 µM; in the test on HS 578T breast, 2.69 µM; in the test with HT29 colon, 3.17 µM; in the test with DU-145 prostate, 2.93 µM; in the test with TK-10 renal it was 3.75 µM. In addition, the GI50 in the test with HCT-116 colon was 3.65 µM; with A498 renal, 1.37 µM; in the test with M14 melanoma, 2.6 µM; in the test with A549 NSCLC, 3.57 µM. Moreover, the TGI in the test with PC-3 prostate, with CAKI-1 renal, in the test with HS 578T breast, with HT29 colon, with DU-145 prostate and in the test on TK-10 renal was > 100 µM throughout. For the same molecule, the TGI in the test on HCT-116 colon is > 100 µM; in the test on A498 renal, 5.7 µM; with M14 melanoma, > 100 µM; with A549 NSCLC, > 100 µM.
Consider `O=C(Nc1ccc(Cl)cc1)N1CCN(c2ccc3nncn3n2)CC1`, for which the GI50 with PC-3 prostate was 34.3 µM; in the test on CAKI-1 renal, 30.3 µM; with HS 578T breast it was > 100 µM; in the test with HT29 colon, 60.7 µM; with DU-145 prostate, 49.8 µM; in the test on TK-10 renal, 43 µM. Moreover, the GI50 in the test on HCT-116 colon is 64 µM; in the test with A498 renal, 11.2 µM; in the test on M14 melanoma it was 56.2 µM. Further, the TGI in the test with PC-3 prostate, in the test on CAKI-1 renal, in the test on HS 578T breast, with HT29 colon, with DU-145 prostate and in the test with TK-10 renal was > 100 µM in each case. Besides, the results for the TGI with HCT-116 colon, in the test on A498 renal and in the test with M14 melanoma were > 100 µM, 96.6 µM and > 100 µM, respectively.
Turning to `Cn1cc(-c2nc(-c3cn(C)c4ncccc34)cs2)c2ccccc21`, the GI50 was 1.92 µM in the test with PC-3 prostate; 0.972 µM in the test on CAKI-1 renal; 4.14 µM with HS 578T breast; 2.25 µM with DU-145 prostate; 2.4 µM in the test on TK-10 renal; 0.802 µM in the test with HCT-116 colon. The GI50 in the test on A498 renal was 1.5 µM; in the test on M14 melanoma, 0.955 µM; with A549 NSCLC, 1.43 µM. Further, the TGI was 9.3 µM in the test on PC-3 prostate; > 100 µM with CAKI-1 renal; > 100 µM in the test with HS 578T breast; 10.7 µM with DU-145 prostate; 11.6 µM in the test with TK-10 renal; 18.4 µM in the test with HCT-116 colon. Besides, the TGI with A498 renal is 13.5 µM; with M14 melanoma, 20.4 µM; with A549 NSCLC, > 100 µM.
Take `CCCCNCCCCCNc1cc(OC)cc2cccnc12`: the GI50 with PC-3 prostate is 15.2 µM; with CAKI-1 renal, 18.4 µM; with HS 578T breast, 21.7 µM; in the test on DU-145 prostate it was 23.1 µM; in the test with TK-10 renal, 23.4 µM; with HCT-116 colon it was 13.6 µM. The GI50 in the test with A498 renal was 16.2 µM; with M14 melanoma it was 14.9 µM; in the test on A549 NSCLC it was 20.7 µM. The TGI worked out at 34.7 µM in the test on PC-3 prostate; 37.7 µM in the test on CAKI-1 renal; 47.9 µM in the test on HS 578T breast; 56.3 µM in the test with DU-145 prostate; 44.5 µM in the test on TK-10 renal; 26.6 µM in the test with HCT-116 colon. Besides, the TGI with A498 renal amounted to 38 µM; in the test on M14 melanoma, 28.5 µM; with A549 NSCLC it was 51.3 µM.
Take `Nc1cc(N)c2nc(-c3ccccc3)c(NCc3ccc(Cl)c(Cl)c3)nc2c1`: the GI50 in the test on PC-3 prostate is 1.75 µM; with CAKI-1 renal, 13.2 µM; with HS 578T breast, 5.9 µM; in the test on DU-145 prostate it was 16.2 µM; in the test with TK-10 renal, 12.8 µM; with HCT-116 colon, 11.5 µM. Further, the GI50 in the test on A498 renal is 17.4 µM; in the test with M14 melanoma, 15.7 µM; with A549 NSCLC, 10.8 µM. The TGI in the test with PC-3 prostate was determined as 5.16 µM; in the test on CAKI-1 renal, 52.7 µM; with HS 578T breast, 46.7 µM; with DU-145 prostate it was 33.4 µM; in the test on TK-10 renal, 30.5 µM; in the test with HCT-116 colon, 24.1 µM. In addition, the TGI turned out to be 32.4 µM with A498 renal, 34.6 µM in the test with M14 melanoma and 27.4 µM in the test with A549 NSCLC.
With `Cc1cc(OCc2nn(CN3CCN(C)CC3)c(=S)n2/N=C/c2ccc(F)cc2)ccc1Cl`, the GI50 with PC-3 prostate was 16.2 µM; in the test with CAKI-1 renal, 20.1 µM; in the test on HS 578T breast, 33.1 µM; in the test with DU-145 prostate, 20.7 µM; in the test on TK-10 renal it was 14.6 µM; in the test on HCT-116 colon, 17.8 µM. For the same molecule, the values for the GI50 in the test on A498 renal, in the test on M14 melanoma and in the test with A549 NSCLC were 16.8 µM, 17.9 µM and 16.9 µM, respectively. Besides, the TGI worked out at 31.6 µM in the test with PC-3 prostate; 40.9 µM in the test on CAKI-1 renal; 88.7 µM in the test on HS 578T breast; 40.7 µM with DU-145 prostate; 33.7 µM in the test on TK-10 renal; 32.3 µM in the test on HCT-116 colon. Further, the results for the TGI with A498 renal, with M14 melanoma and with A549 NSCLC were 31.3 µM, 33.1 µM and 31.3 µM, respectively.
